Experiment: gradient 5% acetonitrile 3 min, to 50% in 2 min, to 85% in 15 min, held 3 min, 100 µL/min
Conditions: column: Zorbax Extend-C18 2.1 x 50 mm; eluents: water / acetonitrile, 0.1% formic acid
Procedure, shortened: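 In both positive and negative ionization mode, a quadrupole time-of-flight mass spectrometer coupled to HPLC analyzed pure standards run in mixtures of ~100 molecules. The Zorbax Extend-C18 column (2.1 × 50 mm, 1.8 μm) was operated at 100 μL/min with water and acetonitrile, each containing 0.1% formic acid. The dead volume was 40 μL and the dwell volume 900 μL. Retention time came from adduct peaks that were computationally picked and individually inspected by hand.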

Structure (SMILES) | RP-LC retention time
COc1cccc(NS(=O)(=O)c2cc(-c3[nH]ncc3C(=O)N(C)C)oc2C)c1 | 668 s
CN(CCc1noc(COc2ccc(F)cc2)n1)C(=O)Nc1cccc(Br)c1 | 971 s
COc1cc(-c2nnc(-c3ccc(C)c(S(=O)(=O)N4CCC(C)CC4)c3)o2)cc(OC)c1OC | 1170 s
CCn1ncn2cc(S(=O)(=O)Nc3ccc(Cl)cc3)cc2c1=O | 792 s
CSc1ccc(-c2nc3ncccn3c2Nc2cccc(Cl)c2C)cc1 | 968 s
COC(=O)C1=C(C)NC2=C(C(=O)CC(C)(C)C2)C1c1cc(OC)c(OC)c(OC)c1 (centres undefined) | 684 s
CC(C)Cn1cc(CCNC(=O)c2cccc(Br)c2)c2cccnc21 | 922 s
COC(=O)c1cccc(Nc2c(-c3cccc(O)c3)nc3cnccn23)c1 | 696 s
COc1ccc(-c2cn3c(n2)N(C(=O)Cn2ccnc2)CCC3)cc1 | 593 s
COc1cc(OC)c(N(C)C(=O)C2CCCN(c3ncnc4c3nc3n4CCCCC3)C2)cc1Cl (centres undefined) | 854 s
Cc1cccc(NS(=O)(=O)c2ccc(-c3nnc(C4CCC4)o3)o2)c1 | 924 s
COc1cccc(NC(=O)[C@H]2[C@@H](c3cc(OC)c(OC)c(OC)c3)c3cc4c(cc3[C@@H](O)[C@@H]2CO)OCO4)c1 | 704 s
Cc1cc2nc(C(=O)Nc3cc(F)cc(F)c3)cc(C)n2n1 | 1050 s
CNc1ncnc2c1cnn2C1CCCCO1 (centres undefined) | 635 s
Cn1c(C2CCCN(S(C)(=O)=O)C2)nn(CC(=O)NC2CCCCC2)c1=O (centres undefined) | 606 s
CC(C)c1ccc(S(=O)(=O)c2ccc(=O)n(CC(=O)N3CCN(c4ccc(F)cc4)CC3)n2)cc1 | 1000 s
CN1CCCn2cc(S(=O)(=O)Nc3ccc4c(c3)OCCO4)cc2C1=O | 655 s
Cc1ccc2c(=O)c3c([nH]c2c1C)CCN(CC(=O)Nc1cccc(Cl)c1C)C3 | 661 s
Cc1nc(-c2ccc(N3CCN(S(=O)(=O)c4cccnc4)CC3)nc2)no1 | 680 s
O=C(CN1C(=O)NC2(CCCCC2)C1=O)Nc1ccc(F)cc1F | 736 s

Structure (SMILES) | RP-LC retention time
CN(C)S(=O)(=O)c1ccc(-c2nnc(C(=O)N3CCCCC3)o2)cc1 | 824 s
COCC(C)NC(=O)c1ccc2c(c1)CCCN2S(C)(=O)=O (centres undefined) | 679 s
CCOc1ccc(-c2cc3c(=O)n(Cc4nc(-c5ccc(Cl)c(F)c5)no4)ncn3n2)cc1 | 1270 s
O=C(CCc1csc(NC(=O)NC2CCCCC2)n1)NCCC1=CCCCC1 | 843 s
COc1ccc(-c2cn3cccnc3n2)cc1NC(=O)c1c(F)cccc1F | 653 s
CSc1nnc(-c2cccc(S(=O)(=O)N3CCCC3)c2)o1 | 770 s
Cc1oc(-c2[nH]ncc2C(=O)N2CCOCC2)cc1S(=O)(=O)Nc1ccc(F)cc1 | 669 s
COc1ccccc1NC(=O)c1ccc2nc(-c3ccccc3)cn2c1 | 725 s
CCCC(=O)Nc1ccc2c(c1)N(C(=O)c1cccs1)CCC2 | 801 s
Cc1ccc(-c2noc(Cn3ccn(-c4c(C)cccc4C)c(=O)c3=O)n2)cc1C | 1000 s
CC(=O)N1CCc2c([nH]c3ccccc23)C12C(=O)N(CCC(C)C)c1ccc(Br)cc12 (centres undefined) | 1040 s
CCc1noc(NC(C)=O)c1-c1ccc(C)c(S(=O)(=O)N2CCCCCC2)c1 | 926 s
O=C(COc1ccc(F)cc1)Nc1ccc2c(c1)N(C(=O)c1ccco1)CCC2 | 712 s
Cc1cc(C(=O)NC2CCCCCC2)n[nH]1 | 724 s
O=c1cc(CSc2nnc(-c3cccc(Cl)c3)o2)nc2sccn12 | 832 s
CC(C)(C)c1csc(-c2csc(S(=O)(=O)NCc3ccccc3Cl)c2)n1 | 1300 s
Cc1ccc(C)c(-c2csc(NC(=O)c3sc(-c4ccccc4)nc3C)n2)c1 | 1350 s
CCn1cc(C2=CCN(C(=O)Nc3ccc(SC)cc3)CC2)c2cccnc21 | 910 s
CCN1C(=O)SC(CC(=O)O)C1=O (centres undefined) | 948 s
O=C(CCS(=O)(=O)c1ccccc1)Nc1cc(-c2ccccc2)nn1CCO | 695 s

Structure (SMILES) | RP-LC retention time
CCOCC(=O)N1CC(F)(F)C[C@H]1c1nc(C(=O)NC)no1 | 626 s
CC(C)c1ccc(NC(=O)Cn2cccc2-c2nnc(C3CC3)o2)cc1 | 961 s
Cc1cc(C)c2c(N3CCSCC3)nc(C(=O)NC(C)c3ccccn3)nc2n1 (centres undefined) | 618 s
Cc1cccc(CN2CC(=O)N(c3cccc(C)c3)[C@@H]3CS(=O)(=O)C[C@@H]32)c1 | 826 s
CCC(NC(=O)c1cn2ccc(C)cc2n1)c1ccc(OC)cc1 (centres undefined) | 707 s
CCOc1ccc(CNC(=O)c2cnc(OC)nc2)cc1 | 732 s
Cc1cc(S(=O)(=O)N2CC(Cc3nncn3C3CCCC3)C2)ccc1F | 747 s
CCc1nn2c(CNS(=O)(=O)c3cc(F)ccc3F)c(-c3ccccc3)nc2s1 | 929 s
NC(=O)C1(c2ccccc2Cl)CC1 | 692 s
NC(=O)C1(c2cccc(F)c2)CC1 | 694 s
CCn1ccc2sc(C)c(C(=O)NCc3cccc(C)c3)c2c1=O | 850 s
CC(C)n1c(=O)c2ccccc2n(Cc2nc(-c3ccc4c(c3)OCO4)no2)c1=O | 1080 s
Cc1cc(C)c(S(=O)(=O)N2CCc3c(c(-c4nnc(-c5ccc(F)cc5)o4)nn3C)C2)c(C)c1 | 1090 s
CCCc1c(C(=O)O)nnn1-c1ccc(C)cc1F | 761 s
COc1cccc(N2C(=O)CC(c3ccc(OC)c(OC)c3)CC2=O)c1 | 789 s
COC(=O)c1cccc(C(=O)Nc2ccc(F)cc2Cl)n1 | 993 s
CC1(C)CC(=O)c2cn(-c3ccccc3)c(=O)c(C(=O)Nc3ccc(Cl)cn3)c2C1 | 1050 s
O=C(Cn1cnc(-c2cccs2)cc1=O)NCc1ccccc1OC(F)(F)F | 801 s
CCCn1cc(CCNC(=O)Nc2ccccc2C)c2cccnc21 | 717 s

More lines, now with the values ahead:

RP-LC retention time | Structure (SMILES)
809 s | COC(=O)c1ccccc1NC(=O)N1CCN(Cc2nc(-c3cccc(Cl)c3)oc2C)CC1
644 s | CC1=C(C(=O)NCCCOC(C)C)C2(CCN(Cc3ccccc3)CC2)OC1=O
654 s | CN1CCn2ccnc2C12CCN(S(=O)(=O)c1ccccc1C(F)(F)F)CC2
518 s | Cn1cnc(S(=O)(=O)N2CCOc3ccc(CN4CCc5ccccc5C4)cc3C2)c1
1050 s | CCN(C(=O)CN1C(=O)CCCc2cc(S(=O)(=O)N3CCC(C)CC3)ccc21)c1ccccc1
879 s | COc1ccc(CNC(=O)c2ccc3c(=O)n(-c4ccccc4)c(N4CCCC4)nc3c2)c(OC)c1
658 s | COc1ccc(CNC(=O)c2cn3ccccc3n2)c(OC)c1
1100 s | COc1cccc(NC(=O)C2CCCN(c3nc4ccccc4nc3OC)C2)c1 (centres undefined)
721 s | CCOc1ccc(NC(=O)NCCc2nc3cccnc3n2C2CCCC2)cc1
759 s | CCOc1ccc(CCNC(=O)C2CCCN(c3nnc(C)c4c(C)n(-c5ccccc5)nc34)C2)cc1 (centres undefined)
571 s | COCCNC(=O)N1CCC(OC2CCN(Cc3ccccc3)CC2)CC1
625 s | O=C(Nc1nccs1)C1CCN(C(=O)c2cccc(-n3cnnn3)c2)CC1
645 s | COc1cccc(-c2noc(N3CCN(c4ccccn4)CC3)n2)c1OC
725 s | CN1C(=O)c2ccccc2Oc2ccc(C(=O)NC3CCCC3)cc21
901 s | Cc1cccc(NC(=O)N2CCc3nc(-c4ccccc4)ncc3C2)c1C
1040 s | Cc1cccc(N2CCN(S(=O)(=O)c3cc4c(s3)CCN(C(=O)C3CC3)C4)CC2)c1
728 s | CC1=C(c2ccccc2)S(=O)(=O)N=C1N1CCCN(C(=O)c2ccoc2)CC1
721 s | CCOCCCNC(=O)C(C)n1nc(C)c2c(C)n(-c3ccccc3)nc2c1=O (centres undefined)
873 s | CCc1ccc(NC(=O)C2CCCN(S(=O)(=O)c3c[nH]c(C(=O)N4CCCC4)c3)C2)cc1 (centres undefined)
620 s | CCOC(=O)c1c(C)[nH]c(C(=O)N2CCCC(C(=O)NCCN3CCCCC3)C2)c1C (centres undefined)
676 s | O=C(c1ccccc1)N1CCC(Oc2cc(N3CCOCC3)ncn2)C1 (centres undefined)
1000 s | CC(C)(Oc1ccc(Cl)cc1)C(=O)NCCS(=O)(=O)N1CCc2ccccc2C1
994 s | O=C(NCc1ccccc1F)c1cc(N2CCCC2)n2nccc2n1
941 s | O=S(=O)(Cc1ccccc1)N1CCC(c2noc(COCC3CC3)n2)CC1
906 s | CCS(=O)(=O)N1CC(=O)N(c2ccc(Cl)cc2C)C(C)(C(=O)NCc2ccccc2)C1 (centres undefined)
911 s | Cc1ccccc1CNC(=O)CN1C(=O)CCCc2cc(S(=O)(=O)N3CCCCC3)ccc21
882 s | CC(C)NC(=O)N1CCC2(CC1)CCC(O)(CN1CCc3ccccc31)CC2
842 s | CN(C)S(=O)(=O)c1ccc2c(c1)N(CC(=O)NCCc1ccco1)C(=O)C1CCCCN21 (centres undefined)
782 s | COc1cccc(NC(=O)C2CCc3nc(N4CCCCC4)ncc3C2)c1 (centres undefined)
566 s | O=C(NC1CC1)c1c2c(nc3ccccc13)CCC2

— the METLIN SMRT retention time set (Domingo-Almenara et al. 2019)
